Experimental data as given in patent US20260263334A1, “COMPOSITIONS CONTAINING NITRATE-RICH FOODS AND EXTRACTS FOR SHIFTING THE ORAL MICROBIOME” (WM. WRIGLEY JR. COMPANY, priority 2023, published 2026).

How the values were obtained:
[1] = system: Veillonella atypica (ATCC 17744) (V.a.); test: nitrate reductase (NR) activity of V.a (Griess test); assay type: cell-based; settings: for NR activity of CHX treated V.a (OD): Reduced Transport buffer
Protocol: (§1) For evaluation of nitric oxide producing capability of oral bacteria, overnight cultures of test organisms were washed once and transferred into a medium without any nitrate or nitrite compounds. A 0.5% (or 1%) KNO3 was added to the medium, and further incubated anaerobically at 37° C. for 24-48 hours. The concentration of nitrite (due to reduction of nitrate by nitrate reductase) was determined by Griess Test over a desired period of time.
(§2) To examine the effect of natural and chemical antimicrobial agents on NO production, test bacteria were pre-exposed to magnolia bark extract (MBE) (a natural germ-kill compound), peppermint oil, and chlorhexidine (CHX). The activities of nitrate reductase from oral bacteria were assayed by Griess test as described above. No treatment controls were included for each test bacterial species. The production of nitrite was reduced if the test antimicrobial compounds affected the nitrate reductase activity. Dose response curves were prepared.
V. atypica was grown in RCM medium without (NH4)2SO4 (to avoid the NH4 affecting Griess reagent); and without agar (0.05%, to avoid affecting the OD measurement).
The method used was the same as that for A.a., except the V.a cell concentration was adjusted to OD550 nm=0.7 (10^8 CFR/ml) in Reduced Transport buffer. The NR activity was also determined in the same buffer system. […]
(§3) Test bacteria cells were incubated with 1% cysteine in growth medium and 0.3% of a nitrate source. Controls contained no cysteine.

[2] = system: oral microbiota; settings: mouthwash containing 0.12% of chlorhexidine, cited from earlier work
[3] = system: Aggregatibacter actinomycetemcomitans (A.a.); test: nitrate reductase (NR) activity of A.a. (Griess test); assay type: cell-based
Protocol: as §1, §2
A. actinomycetemcomitans (A.a.) was grown anaerobically in THB broth supplemented with 1% yeast extract with 0.001% Hemin, and 0.0001% Vitamin K.
The nitrate source KNO3 (0.1% final) was added to respective growth media for individual test bacteria and incubated for 24-48 hours, then 20 μl of the culture broth was withdrawn and tested for nitrite with Griess reagent.
Test bacteria were grown in respective media anaerobically for 48 hours. Cells were centrifuged and re-suspended in buffer or fresh medium for NR activity testing. […]
as §3

[4] = system: Aggregatibacter actinomycetemcomitans (A.a.); test: short-term time-kill against A.a. (viable colony on agar); assay type: cell-based; parameters: key to viable colony: +: viable colony; −: no viable colony; settings: for viable colony: stop reagent
Protocol: Fresh grown cells were harvested and adjusted to OD550 nm=0.5, then mixed with CHX (75-1,000 μg/ml). At different time points, an aliquot of cells was removed and mixed with (or without) stop reagent (0.5% Tween 80 and 0.07% Lecithin) to stop the CHX reaction on cells. The treated cells were centrifuged to remove the supernatant that contained CHX, and the cell pellet was spotted on BHI agar (supplemented with 0.001% Hemin, 0.0001% Vitamin K) for cell viability. Fresh grown cells were harvested and mixed with MBE for a short period of time and the viability of treated cells were evaluated. 10% DMSO was used to wash the treated cells and the MBE was removed from the assay system. Immediately after treatment, 10% DMSO was added to the cell mixture. The cell mixture was then centrifuged and washed once more with 10% DMSO. Cells treated with MBE for various times were spotted on an agar plate, […] and noted for viable colony development.

[5] = chlorhexidine >=10 μg/ml, summary

## [H]/N=C(\N/C(=N/[H])NCCCCCCNC(=N)NC(=N)Nc1ccc(Cl)cc1)Nc1ccc(Cl)cc1 [CHX, chlorhexidine]
[1]; CHX 10 μg/ml, 1 min Treatment
  NR activity of CHX treated V.a (OD): 0.266 OD
[1]; CHX 10 μg/ml, 10 min Treatment
  NR activity of CHX treated V.a (OD): 0.300 OD
[1]; CHX 50 μg/ml, 1 min Treatment
  NR activity of CHX treated V.a (OD): 0.304 OD
[1]; CHX 50 μg/ml, 10 min Treatment
  NR activity of CHX treated V.a (OD): 0.282 OD
[1]; CHX 100 μg/ml, 1 min Treatment
  NR activity of CHX treated V.a (OD): 0.255 OD
[1]; CHX 100 μg/ml, 10 min Treatment
  NR activity of CHX treated V.a (OD): 0.280 OD
[1]; CHX 250 μg/ml, 1 min Treatment
  NR activity of CHX treated V.a (OD): 0.190 OD
[1]; CHX 250 μg/ml, 10 min Treatment
  NR activity of CHX treated V.a (OD): 0.161 OD
[1]; CHX 500 μg/ml, 1 min Treatment
  NR activity of CHX treated V.a (OD): 0.170 OD
[1]; CHX 500 μg/ml, 10 min Treatment
  NR activity of CHX treated V.a (OD): 0.162 OD
[1]; [5]
  activities of nitrate reductase: significantly inhibits
[2]
  VSC-producing bacteria and enteric nitric oxide producing bacteria: reduced
[2]; healthy human volunteers
  oral and plasma nitrite levels: reduced
  systolic and diastolic blood pressure: sustained increase
[3]; CHX 100 μg/ml for 10 min
  NR activity of CHX treated A.a.: inhibited NR activity
[3]; CHX 100 μg/ml, 1 min treatment, 2nd trial, 2 hr
  OD at 550 nm for A.a. NR activity test: 0.212 OD
[3]; CHX 100 μg/ml, 1 min treatment, 2nd trial, 3 hr
  OD at 550 nm for A.a. NR activity test: 0.856 OD
[3]; CHX 100 μg/ml, 1 min treatment, 3rd trial, 2 hr
  OD at 550 nm for A.a. NR activity test: 0.844 OD
[3]; CHX 100 μg/ml, 10 min treatment, 1st trial, 2 hr
  OD at 550 nm for A.a. NR activity test: 0.117 OD
[3]; CHX 100 μg/ml, 10 min treatment, 1st trial, 3 hr
  OD at 550 nm for A.a. NR activity test: 0.130 OD
[3]; CHX 100 μg/ml, 10 min treatment, 2nd trial, 2 hr
  OD at 550 nm for A.a. NR activity test: 0.284 OD
[3]; CHX 200 μg/ml, 1 min treatment, 2nd trial, 2 hr
  OD at 550 nm for A.a. NR activity test: 0.279 OD
[3]; CHX 200 μg/ml, 1 min treatment, 2nd trial, 3 hr
  OD at 550 nm for A.a. NR activity test: 0.849 OD
[3]; CHX 200 μg/ml, 1 min treatment, 3rd trial, 2 hr
  OD at 550 nm for A.a. NR activity test: 0.852 OD
[3]; CHX 200 μg/ml, 10 min treatment, 1st trial, 2 hr
  OD at 550 nm for A.a. NR activity test: 0.125 OD
[3]; CHX 200 μg/ml, 10 min treatment, 1st trial, 3 hr
  OD at 550 nm for A.a. NR activity test: 0.127 OD
[3]; CHX 200 μg/ml, 10 min treatment, 2nd trial, 2 hr
  OD at 550 nm for A.a. NR activity test: 0.125 OD
[3]; CHX 300 μg/ml, 1 min treatment, 1st trial, 2 hr
  OD at 550 nm for A.a. NR activity test: 0.263 OD
[3]; CHX 300 μg/ml, 1 min treatment, 2nd trial, 2 hr
  OD at 550 nm for A.a. NR activity test: 0.134 OD
[3]; CHX 300 μg/ml, 1 min treatment, 2nd trial, 3 hr
  OD at 550 nm for A.a. NR activity test: 0.260 OD
[3]; CHX 300 μg/ml, 1 min treatment, 3rd trial, 2 hr
  OD at 550 nm for A.a. NR activity test: 0.853 OD
[3]; CHX 300 μg/ml, 10 min treatment, 1st trial, 2 hr
  OD at 550 nm for A.a. NR activity test: 0.115 OD
[3]; CHX 300 μg/ml, 10 min treatment, 1st trial, 3 hr
  OD at 550 nm for A.a. NR activity test: 0.130 OD
[3]; CHX 300 μg/ml, 10 min treatment, 2nd trial, 2 hr
  OD at 550 nm for A.a. NR activity test: 0.129 OD
[3]; CHX 500 μg/ml, 1 min treatment, 1st trial, 2 hr
  OD at 550 nm for A.a. NR activity test: 0.284 OD
[3]; CHX 500 μg/ml, 1 min treatment, 2nd trial, 2 hr
  OD at 550 nm for A.a. NR activity test: 0.107 OD
[3]; CHX 500 μg/ml, 1 min treatment, 2nd trial, 3 hr
  OD at 550 nm for A.a. NR activity test: 0.213 OD
[3]; CHX 500 μg/ml, 1 min treatment, 3rd trial, 2 hr
  OD at 550 nm for A.a. NR activity test: 0.443 OD
[3]; CHX 500 μg/ml, 10 min treatment, 1st trial, 2 hr
  OD at 550 nm for A.a. NR activity test: 0.114 OD
[3]; CHX 500 μg/ml, 10 min treatment, 1st trial, 3 hr
  OD at 550 nm for A.a. NR activity test: 0.118 OD
[3]; CHX 500 μg/ml, 10 min treatment, 2nd trial, 2 hr
  OD at 550 nm for A.a. NR activity test: 0.131 OD
[3]; CHX 750 μg/ml, 1 min treatment, 1st trial, 2 hr
  OD at 550 nm for A.a. NR activity test: 0.148 OD
[3]; CHX 750 μg/ml, 1 min treatment, 2nd trial, 2 hr
  OD at 550 nm for A.a. NR activity test: 0.107 OD
[3]; CHX 750 μg/ml, 1 min treatment, 2nd trial, 3 hr
  OD at 550 nm for A.a. NR activity test: 0.169 OD
[3]; CHX 750 μg/ml, 1 min treatment, 3rd trial, 2 hr
  OD at 550 nm for A.a. NR activity test: 0.391 OD
[3]; CHX 750 μg/ml, 10 min treatment, 1st trial, 2 hr
  OD at 550 nm for A.a. NR activity test: 0.118 OD
[3]; CHX 750 μg/ml, 10 min treatment, 1st trial, 3 hr
  OD at 550 nm for A.a. NR activity test: 0.141 OD
[3]; CHX 750 μg/ml, 10 min treatment, 2nd trial, 2 hr
  OD at 550 nm for A.a. NR activity test: 0.112 OD
[3]; CHX 1,000 μg/ml (0.1%) for 1 min
  NR activity of CHX treated A.a.: completely inhibited NR activity
[3]; CHX 1000 μg/ml, 1 min treatment, 1st trial, 2 hr
  OD at 550 nm for A.a. NR activity test: 0.160 OD
[3]; [5]
  activities of nitrate reductase: significantly inhibits
[4]; CHX 75 μg/ml, treatment time 0 min
  viable colony: +
[4]; CHX 75 μg/ml, treatment time 5 min
  viable colony: +
[4]; CHX 75 μg/ml, treatment time 30 min
  viable colony: +
[4]; CHX 75 μg/ml, treatment time 60 min
  viable colony: +
[4]; CHX 100 μg/ml, treatment time 0 min
  viable colony: +
[4]; CHX 100 μg/ml, treatment time 1 min
  viable colony: +
[4]; CHX 100 μg/ml, treatment time 3 min
  viable colony: +
[4]; CHX 100 μg/ml, treatment time 5 min
  viable colony: +
[4]; CHX 100 μg/ml, treatment time 10 min
  viable colony: +
[4]; CHX 100 μg/ml, treatment time 30 min
  viable colony: +
[4]; CHX 100 μg/ml, treatment time 60 min
  viable colony: −
[4]; CHX 200 μg/ml, treatment time 0 min
  viable colony: +
[4]; CHX 200 μg/ml, treatment time 1 min
  viable colony: +
[4]; CHX 200 μg/ml, treatment time 2 min
  viable colony: +
[4]; CHX 200 μg/ml, treatment time 3 min
  viable colony: +
[4]; CHX 200 μg/ml, treatment time 5 min
  viable colony: +
[4]; CHX 200 μg/ml, treatment time 10 min
  viable colony: +
[4]; CHX 200 μg/ml, treatment time 30 min
  viable colony: −
[4]; CHX 200 μg/ml, treatment time 60 min
  viable colony: −
[4]; CHX 300 μg/ml, treatment time 0 min
  viable colony: +
[4]; CHX 300 μg/ml, treatment time 1 min
  viable colony: +
[4]; CHX 300 μg/ml, treatment time 2 min
  viable colony: +
[4]; CHX 300 μg/ml, treatment time 3 min
  viable colony: +
[4]; CHX 300 μg/ml, treatment time 5 min
  viable colony: +
[4]; CHX 300 μg/ml, treatment time 10 min
  viable colony: +
[4]; CHX 300 μg/ml, treatment time 30 min
  viable colony: −
[4]; CHX 300 μg/ml, treatment time 60 min
  viable colony: −
[4]; CHX 500 μg/ml, treatment time 0 min
  viable colony: +
[4]; CHX 500 μg/ml, treatment time 1 min
  viable colony: +
[4]; CHX 500 μg/ml, treatment time 2 min
  viable colony: +
[4]; CHX 500 μg/ml, treatment time 3 min
  viable colony: +
[4]; CHX 500 μg/ml, treatment time 5 min
  viable colony: +
[4]; CHX 500 μg/ml, treatment time 10 min
  viable colony: −
[4]; CHX 500 μg/ml, treatment time 30 min
  viable colony: −
[4]; CHX 500 μg/ml, treatment time 60 min
  viable colony: −
[4]; CHX 750 μg/ml, treatment time 0 min
  viable colony: +
[4]; CHX 750 μg/ml, treatment time 1 min
  viable colony: +
[4]; CHX 750 μg/ml, treatment time 2 min
  viable colony: +
[4]; CHX 750 μg/ml, treatment time 3 min
  viable colony: +
[4]; CHX 750 μg/ml, treatment time 5 min
  viable colony: +
[4]; CHX 750 μg/ml, treatment time 10 min
  viable colony: −
[4]; CHX 750 μg/ml, treatment time 30 min
  viable colony: −
[4]; CHX 750 μg/ml, treatment time 60 min
  viable colony: −
[4]; CHX 1000 μg/ml, treatment time 0 min
  viable colony: +
[4]; CHX 1000 μg/ml, treatment time 1 min
  viable colony: +
[4]; CHX 1000 μg/ml, treatment time 2 min
  viable colony: +
[4]; CHX 1000 μg/ml, treatment time 3 min
  viable colony: −
[4]; CHX 1000 μg/ml, treatment time 5 min
  viable colony: −
[4]; CHX 1000 μg/ml, treatment time 30 min
  viable colony: −
[4]; CHX 1000 μg/ml, treatment time 60 min
  viable colony: −
[4]; CHX 75-1,000 μg/ml, two-minute treatment, stop reagent added
  viability of A.a.: limited viability
